Measured values reported in patent US20040219508A1, “Screening, quantitation and identification of active ingredients in natural products” (Sloan-Kettering Institute for Cancer Research, priority 2002, published 2004).

Legend:
[1] = test system: MKN-74 cells; assay: Flow cytometry with MPM-2 labeling after nocodazole synchronisation; type: cell-based, human
Excerpt: Activation of cyclin B1 associated cdc2 kinase by mitotic inhibitors including paclitaxel induces an increased accumulation of cells into the M phase of the cell cycle (12). Thus, a decrease in cyclin B1 associated kinase activity should prevent cells from entering M and results in an accumulation of cells in G2. It should also force cells in M to exit M and continue to cell cycle. Experiments were designed to test this in the MKN-74 cells by flow cytometry and labeling of cells with the MPM-2 antibody which identifies cells in mitosis. This is difficult to assess in asynchronous cells. So as to better document accumulation of cell in G2, experiments were designed to first synchronise the cells with nocodazole in the M phase (e.g. mitotic block).

[2] = dogs; cited from earlier work
[3] = test system: HepG2 hepatoma cells; details: continuous exposure, 1 to 50 μM; cited from earlier work
[4] = Metabolism by human liver S9 microsomes, HPLC/UV; type: in vitro ADME; details: extract 3 μ/ml, S9 1 mg/ml with NADPH
Description: Since oral drugs are metabolised by a “first-pass” through the liver, we also elected to determine whether huanglian would be metabolised in vitro by human liver S9 microsomes (Gentest, MA). This assay creates metabolites of a drug that are equivalent to those formed on a “first-pass” through the liver. For these studies, the huanglian extract, at a final concentration of 3 μ/ml, was exposed to human liver S9 microsomes at 1 mg/ml with NADPH. The microsomal extracts obtained in this assay were then analyzed by HPLC and UV spectroscopy.

[5] = human, in vivo
Description: Pharmacokinetic studies (PK). Bloods for pharmacokinetic studies (PK) will be performed on days 1, 2, 8, 15 and 29 of treatment. Repeated bloods for PK will be drawn on day #1 only, before the daily dose (time=0), 1 hour after, and 2,4, 6, 8 and 24 hours after the first dose of huanglian. On all other days, a single PK blood sample will be drawn, to measure steady state levels of the drug. For these studies 10 ml of heparinized blood (green stopper vacutainer tube) will be collected. Plasma samples (PK) will be sent for pharmacokinetic measurements of huanglian peaks.
Pharmacokinetic (PK) and surrogate marker studies: Since berberine represents approximately 50% of the herb, PK measurements were being conducted of berberine by HPLC. However, only very low levels of berberine (<50 ng/ml) have been detected in the plasma of any patient on the study. Also being tested is plasma collected from patients on day #15 of therapy to determine if the patient's own plasma will inhibit cancer cell growth of the gastric cancer cell line MKN-74 ex vivo, as determined by SRB assays. For these studies, the patient's plasma is concentrated and the MKN-74 cells are exposed to the patient's own plasma for either 2 (II) or 4 (IV) days before the tumor cells are assayed for growth inhibition. As shown for the patient treated in cohort 3 (see graph below), the patient's own pretreatment plasma (day 0) was capable of inhibiting MKN-74 cell growth, even though the patient had been off all chemotherapy for at least 4 weeks. Three separate samples were then drawn on day 15 of treatment at 8:30 AM, 9:30 AM, and 12:30 PM. […] The last lanes show the positive control of media “spiked” with huanglian (HL) at a concentration of 20 μg/ml and exposed to MKN-74 cells for both 2 and 4 days. This degree of growth suppression confirms the activity of the herb from the capsules.

[6] = cited from earlier work
[7] = cited from earlier work; remark: listed apart in the source
[8] = test system: MKN-74; assay: MTT growth assay; type: cell-based, human; details: 10 μg/ml berberine
Description: The cells were treated on day 0 with huanglian and then cell viability in the continued presence or absence (control) of drug was determined for the subsequent 5 days (days 1 to 5) by the MTT (3-(4,5-dimethythiazol-2-yl)-2-5-diphenyltetratrazolium bromide) assay. In this colorometric assay the absorbance of converted dye is measured at a wavelength (OD) of 550 nm and the increased absorbance is directly proportional to cell viability.
Since berberine constitutes the major fraction of huanglian (25%), a 10 μg/ml solution of berberine was tested to determine the degree to which it inhibited proliferation of the MKN-74 cells.

change of HPLC peaks after liver microsome treatment [4]	Plasma B [5]	berberine in plasma by HPLC [5]	berberine level in plasma [5]	SMILES	cells remaining in M ([1]; nocodazole for 12 hours (NOC12))	cells remaining in M ([1]; nocodazole, then drug free medium 24 hours (NOC12→(−)24))	cardiovascular effects [2]	tumor cell growth [3]	clinical effect at higher plasma concentration ([6]; berberine plasma concentrations >0.11 mg/L)	side effects ([6]; by mouth, 1.2 gm/d for two weeks, 56 patients)	facial flushing ([7]; 12 patients)	transient nausea ([7]; 12 patients)	QTc interval ([7]; after berberine, returned to baseline after 24 hours)	hemodynamic effects ([7]; i.v. 0.2 mg/kg/min over 30 minutes)	ventricular tachycardia with torsades de pointes morphology, patients ([7]; within 1-20 hours of the infusion)	inhibition of cell proliferation [8]
–	–	–	–	COC(=O)Nc1nc2ccc(C(=O)c3cccs3)cc2[nH]1 [nocodazole]	41%	16%	–	–	–	–	–	–	–	–	–	–
decreased only slightly	0 to 0.024 µg/mL	non-measurable by HPLC	< 50 ng/mL	COc1ccc2cc3[n+](cc2c1OC)CCc1cc2c(cc1-3)OCO2 [berberine]	–	–	positive inotropic effects and lower peripheral vascular resistance	inhibits tumor cell growth in a dose-dependent manner	more significant increase in LVEF and decrease in the frequency and complexity of ventricular premature beats	no side effects or arrythmogenesis	2 patients	2 patients	consistently elevated in all 12 patients	decrease in pulmonary and systemic vascular resistance and an increase in cardiac index and ejection fraction	Four of 12	not able to inhibit cell proliferation to the same degree as either the huanglian or its metabolites
